Biological target: T1, hAK1 (Homo sapiens, UniProt P00568)
T1 construct: gene AK1; pET24d, E. coli BL21 (DE3), Blue Sepharose and size exclusion; 15N/13C-labelled
T1 sequence (P00568 1-194): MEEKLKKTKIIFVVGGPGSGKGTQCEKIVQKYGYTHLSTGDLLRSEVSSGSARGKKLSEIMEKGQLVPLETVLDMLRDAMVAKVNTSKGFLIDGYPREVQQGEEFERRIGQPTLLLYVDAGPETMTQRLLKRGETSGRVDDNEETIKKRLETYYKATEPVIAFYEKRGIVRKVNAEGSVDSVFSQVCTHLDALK
Test: NMR backbone assignment and […] relaxation order parameters
Format: binding
Conditions: 30 mM MES, 50 mM NaCl, pH 5.5 (assignment), 298 K

## Nc1ncnc2c1ncn2[C@@H]1O[C@H](COP(=O)(O)OP(=O)(O)OP(=O)(O)OP(=O)(O)OP(=O)(O)OC[C@H]2O[C@@H](n3cnc4c(N)ncnc43)[C@H](O)[C@@H]2O)[C@@H](O)[C@H]1O [Ap5A]
  NMR backbone assignment and 15N relaxation order parameters: one helical turn in the α-helix at the N-terminus of the catalytic loop

From article PMC12548092, “Exploring Helical Fraying Linked to Dynamics and Catalysis in Adenylate Kinase” (Biochemistry, 2025)
